{
  "source": "patent US11559575B2",
  "about": "“Multi-epitopic peptide compounds and vaccines against leishmaniasis” (INSTITUT DE RECHERCHE POUR LE DEVELOPPEMENT, priority 2018, dated 2023)",
  "system": "HLA alleles of class II",
  "experiment": "Affinity of epitopes for HLA alleles of class II",
  "format": "binding, human",
  "settings": "for Affinity HLA alleles of class II: H2B-II core epitopes; for Affinity HLA alleles of class II / Concatenation affinity for the HLA alleles of class II: Table 1; for Concatenation affinity for the HLA alleles of class II: H2B-II peptides",
  "text": "The multiepitopic peptide compounds (24 to 40-mer), having a high affinity with a maximized number of HLA molecules of class I and of class II, such as the affinities for the alleles HLA of class I and HLA of class II of the epitopes in the peptides of the sequences SEQ ID NO: 22, 23, 65, 66, 69, 73, 77, 96, 97, 137, 138, and 157, 185, have a high immunoprevalent potential corresponding to an optimal vaccine coverage, in particular for the populations concerned. The degree of coverage of the peptide compounds of the invention show a very high added value compared with the peptides of the prior art.",
  "note": "Entries after “also recorded” stand apart in the source; their conditions may differ.",
  "data": [
    {"sequence": "MIRDLDFSN (listed as Leishmania infantum) [SEQ ID NO: 176]", "values": [
      {"measurement": "Concatenation affinity for HLA alleles of class II", "setting": "PSA KC-2.7 core, Table 3", "result": "HLA-DRB1*03:01,; also recorded: HLA-DRB1*04:01,; also recorded: HLA-DRB1*04:05,; also recorded: HLA-DRB1*08:02"}
    ]},
    {"sequence": "MPSGSDYSHSMIRDL (listed as Leishmania infantum) [SEQ ID NO: 163]", "values": [
      {"measurement": "Concatenation affinity for HLA alleles of class II", "setting": "PSA KC-2.7 peptides, Table 3", "result": "HLA-DRB1*04:05, HLA-DRB1*07:01,; also recorded: HLA-DRB1*09:01, HLA-DRB5*01:01"}
    ]},
    {"sequence": "NAIVTSRKV (Leishmania major) [SEQ ID NO: 125]", "values": [
      {"measurement": "Concatenation affinity for HLA alleles of class II", "setting": "LmlRAB-IIB core, Table 2", "result": "HLA-DRB1*07:01"}
    ]},
    {"sequence": "NAIVTSRKVQEEVFD (Leishmania major) [SEQ ID NO: 109]", "values": [
      {"measurement": "Concatenation affinity for HLA alleles of class II", "setting": "LmlRAB-IIB peptides, Table 2", "result": "HLA-DRB1*03:01, HLA-DRB1*07:01,; also recorded: HLA-DRB1*08:02, HLA-DRB1*11:01,; also recorded: HLA-DRB1*12:01"}
    ]},
    {"sequence": "NAQMSMSHR (Leishmania major) [SEQ ID NO: 46]", "values": [
      {"measurement": "Affinity HLA alleles of class II", "result": "HLA-DRB1*01:01"}
    ]},
    {"sequence": "NVYVGRSLKAINAQM (Leishmania major) [SEQ ID NO: 31]", "values": [
      {"measurement": "Concatenation affinity for the HLA alleles of class II", "result": "HLA-DRB1*04:01, HLA-DRB4*01:01, HLA-DRB1*03:01,; also recorded: HLA-DRB1*04:05, HLA-DRB1*11:01, HLA-DRB1*01:01,; also recorded: HLA-DRB1*09:01, HLA-DRB1*15:01, HLA-DRB1*08:02"}
    ]},
    {"sequence": "PKRSWNVYV (Leishmania major) [SEQ ID NO: 48]", "values": [
      {"measurement": "Affinity HLA alleles of class II", "result": "HLA-DRB1*13:02,; also recorded: HLA-DRB1*15:01"}
    ]},
    {"sequence": "PKRSWNVYVGRSLKA (Leishmania major) [SEQ ID NO: 26]", "values": [
      {"measurement": "Concatenation affinity for the HLA alleles of class II", "result": "HLA-DRB5*01:01, HLA-DRB1*01:01, HLA-DRB1*11:01,; also recorded: HLA-DRB5*13:02, HLA-DRB5*07:01, HLA-DRB5*09:01,; also recorded: HLA-DRB5*15:01"}
    ]},
    {"sequence": "PSGSDYSHSMIRDLD (listed as Leishmania infantum) [SEQ ID NO: 164]", "values": [
      {"measurement": "Concatenation affinity for HLA alleles of class II", "setting": "PSA KC-2.7 peptides, Table 3", "result": "HLA-DRB1*04:05, HLA-DRB1*07:01,; also recorded: HLA-DRB1*09:01, HLA-DRB5*01:01,; also recorded: LA-DPA1*02:01/DPB1*01:01"}
    ]},
    {"sequence": "RHLSIVADHMPLHDQ (RHLSIVADHMPHLDQ; Leishmania major) [SEQ ID NO: 87]", "values": [
      {"measurement": "Concatenation affinity for HLA alleles of class II", "setting": "LmLRAB-IIA peptides, Table 2", "result": "HLA-DRB3*01:01,; also recorded: HLA-DRB1*03:01,; also recorded: HLA-DRB1*13:02"}
    ]},
    {"sequence": "RKPKRSWNVYVGRSL (Leishmania major) [SEQ ID NO: 24]", "values": [
      {"measurement": "Concatenation affinity for the HLA alleles of class II", "result": "HLA-DRB1*13:02, HLA-DRB1*01:01, HLA-DRB1*07:01,; also recorded: HLA-DRB1*09:01, HLA-DRB1*15:01"}
    ]},
    {"sequence": "RKVQEEVFDLFTDVH (Leishmania major) [SEQ ID NO: 111]", "values": [
      {"measurement": "Concatenation affinity for HLA alleles of class II", "setting": "LmlRAB-IIB peptides, Table 2", "result": "HLA-DRB1*03:01, HLA-DRB1*04:01,; also recorded: HLA-DPA1*02:01/DPB1*05:01,; also recorded: HLA-DPA1*03:01/DPB1*04:02"}
    ]},
    {"sequence": "RLHSVVGRHLSIVAD (Leishmania major) [SEQ ID NO: 80]", "values": [
      {"measurement": "Concatenation affinity for HLA alleles of class II", "setting": "LmLRAB-IIA peptides, Table 2", "result": "HLA-DRB1*07:01,; also recorded: HLA-DRB1*15:01,; also recorded: HLA-DRB5*01:01,; also recorded: HLA-DRB1*11:01,; also recorded: HLA-DRB1*09:01,"}
    ]},
    {"sequence": "RSENAIVTSRKVQEE (Leishmania major) [SEQ ID NO: 112]", "values": [
      {"measurement": "Concatenation affinity for HLA alleles of class II", "setting": "LmlRAB-IIB peptides, Table 2", "result": "HLA-DRB1*01:01, HLA-DRB1*03:01,; also recorded: HLA-DRB1*07:01, HLA-DRB1*11:01,; also recorded: HLA-DRB5*01:01"}
    ]},
    {"sequence": "RSGEGYFLT (listed as Leishmania infantum) [SEQ ID NO: 149]", "values": [
      {"measurement": "Concatenation affinity for HLA alleles of class II", "setting": "PSA KC-2.6 core, Table 3", "result": "HLA-DRB1*03:01,; also recorded: HLA-DRB3*01:01"}
    ]},
    {"sequence": "RSGEGYFLTDEKTSL (listed as Leishmania infantum) [SEQ ID NO: 143]", "values": [
      {"measurement": "Concatenation affinity for HLA alleles of class II", "setting": "PSA KC-2.6 peptides, Table 3", "result": "HLA-DRB1*01:01, HLA-DRB1*03:01,; also recorded: HLA-DRB1*04:01, HLA-DRB3*01:01,; also recorded: HLA-DPA1*03:01/DPB1*14:01"}
    ]},
    {"sequence": "RSLKAINAWMSMSHR (RSLKAINAQMSMSHR; Leishmania major) [SEQ ID NO: 36]", "values": [
      {"measurement": "Concatenation affinity for the HLA alleles of class II", "result": "HLA-DRB1*04:01, HLA-DRB1*15:01, HLA-DRB1*05:01,; also recorded: HLA-DRB1*01:01, HLA-DRB1*04:05, HLA-DRB1*07:01,; also recorded: HLA-DRB1*08:02, HLA-DRB1*09:01, HLA-DRB1*11:01,; also recorded: HLA-DRB4*01:01,"}
    ]},
    {"sequence": "RSWNVYVGRSLKAIN (Leishmania major) [SEQ ID NO: 28]", "values": [
      {"measurement": "Concatenation affinity for the HLA alleles of class II", "result": "HLA-DRB5*01:01, HLA-DRB1*01:01, HLA-DRB1*03:01,; also recorded: HLA-DRB1*04:01, HLA-DRB1*11:01, HLA-DRB1*13:02,; also recorded: HLA-DRB1*04:05, HLA-DRB1*07:01, HLA-DRB1*09:01,; also recorded: HLA-DRB1*15:01, HLA-DPA1*02:01/DPB1*01:01,; also recorded: HLA-DRB1*08:02"}
    ]}
  ]
}
